From US11510931B2, “Compositions and methods for treating ophthalmic conditions” (MEDICON PHARMACEUTICALS, INC., priority 2016, dated 2022)
Where two headings read alike, the source gives them in different places.

Key:
[1] = Ocular biodistribution of PS after topical eye drops in New Zealand white rabbits (HPLC); assay type: in vivo, rabbit; settings: New Zealand white, rabbit, topical
Procedure: Results: The above PS formulation was administered topically as eye drops to the eyes of New Zealand white rabbits. The levels of PS in ocular tissues 1 h and 3 h later were determined by HPLC. The Table below summarizes the findings:
Results: The above PS formulation was administered topically as eye drops to the eyes of New Zealand white rabbits. The levels of PS in ocular tissues at 2 h later were determined by HPLC. The table below summarizes the findings.
Results: PS in this formulation was administered topically to the eyes of New Zealand white rabbits and its biodistribution was determined as above. The Table below summarizes the findings.
Results: PS in this formulation was administered topically as eye drops to the eyes of New Zealand white rabbits. The biodistribution of PS in ocular tissues at 3 h and 6 h was determined by HPLC. The Table below summarizes the findings.
Biodistribution of PS after topical administration: PS formulated in nanoparticles as above was administered topically as eye drops to New Zealand white rabbits. The biodistribution of PS in ocular tissues at the indicated time points post administration was determined by HPLC. The Table below summarizes the findings.
Biodistribution of PS after topical administration: PS in the formulations was administered topically as eye drops to the eyes of New Zealand white rabbits. The levels of PS in ocular tissues at 0.5 h, 1 h and 3 h were determined by HPLC. The Table below summarizes the findings.
To assess the contribution of the foregoing formulations to the PK/biodistribution of PS in the ocular tissues, a solution of PS in pure propylene glycol (PG) was studied. PG is well tolerated by the eye. A 3.5% PS solution (in PG) as eye drops was administered topically to the eyes of New Zealand white rabbits and its 1-hour biodistribution was determined by HPLC. The Table summarizes the findings.

MMP-9 = MMP-9 levels in lacrimal gland and aqueous humor of rabbits with DED (ELISA); assay type: in vivo, rabbit
Procedure: In an in vitro assay with purified MMP-1 (collagenase I) as […] it was shown that PS inhibited collagenase activity with an IC50 of <100 nM. In cultured human conjunctiva cells, PS suppressed MMP-1 by 75%-86%. In the lacrimal glands of rabbits with DED treated with PS eye drops, PS suppressed MMP-9 levels by 27% compared to vehicle treated rabbits (2.20±0.24 vs. 1.66±0.20 ng/mg protein; p<0.05; mean±SEM).

[2] = ciliary body, 5.4 % PS, Poloxamer 407 in-situ gel, 5.4% PS, read-out: PS in Ciliary body
[3] = conjunctiva, 5.4 % PS, Poloxamer 407 in-situ gel, 5.4% PS, read-out: PS in Conjunctiva
[4] = conjunctiva, topical eye drops, mPEG-PLA nanoparticles, read-out: PS in Conjunctiva
[5] = cornea, topical eye drops, mPEG-PLA nanoparticles, read-out: PS in Cornea
[6] = iris, 5.4 % PS, Poloxamer 407 in-situ gel, 5.4% PS, read-out: PS in Iris
[7] = iris, topical eye drops, mPEG-PLA nanoparticles, read-out: PS in Iris
[8] = lacrimal gland, topical eye drops, mPEG-PLA nanoparticles, read-out: PS in Lacrimal gland
[9] = lens, 5.4 % PS, Poloxamer 407 in-situ gel, 5.4% PS, read-out: PS in Lens
[10] = retina, 3 % PS, sodium alginate/Tween 80 in-situ gel, 3% PS, read-out: PS in Retina
[11] = retina, 5.4 % PS, Poloxamer 407 in-situ gel, 5.4% PS, read-out: PS in Retina
[12] = sclera, 5.4 % PS, Poloxamer 407 in-situ gel, 5.4% PS, read-out: PS in Sclera
[13] = sclera, topical eye drops, mPEG-PLA nanoparticles, read-out: PS in Sclera
[14] = vitreous, 5.4 % PS, Poloxamer 407 in-situ gel, 5.4% PS, read-out: PS in Vitreous

`CCOP(=O)(OCC)OCCCCOC(=O)CC1=C(C)/C(=C/c2ccc([S+](C)[O-])cc2)c2ccc(F)cc21` (stereo not shown) [PS, phosphosulindac] showed a concentration at 1 h ([1]; choroid, 3.5 % PS solution (eye drops), topical eye drops, 3.5% PS solution in propylene glycol, read-out: PS in Choroid) of 0 µM, a concentration at 6 h ([1]; choroid, 5.4 % PS, Poloxamer 407 in-situ gel, 5.4% PS, read-out: PS in Choroid) of 0 µM and a concentration at 2 h ([1]; choroid, 0.5% gellan gum in-situ gel, 2.4~3% PS, read-out: PS in Choroid) of 0 µM. It also gave a concentration at 3 h [1, 2] of 0 µM, a concentration at 6 h [1, 2] of 0 µM and a concentration at 2 h ([1]; ciliary body, 0.5% gellan gum in-situ gel, 2.4~3% PS, read-out: PS in Ciliary body) of 0 µM. It also gave a concentration at 1 h ([1]; conjunctiva, 3.5 % PS solution (eye drops), topical eye drops, 3.5% PS solution in propylene glycol, read-out: PS in Conjunctiva) of 3.3 µM, a concentration at 3 h [1, 3] of 5.6 µM and a concentration at 6 h [1, 3] of 10.7 µM. It also gave a concentration at 0.5 h [1, 4] of 121 µM, a concentration at 1 h [1, 4] of 80.4 µM and a concentration at 2 h [1, 4] of 16.9 µM. It also gave a concentration at 8 h ([1]; cornea, 3 % PS, sodium alginate/Tween 80 in-situ gel, 3% PS, read-out: PS in Cornea) of 0 nM, a concentration at 1 h ([1]; cornea, 3.5 % PS solution (eye drops), topical eye drops, 3.5% PS solution in propylene glycol, read-out: PS in Cornea) of 38.8 µM and a concentration at 6 h ([1]; cornea, 5.4 % PS, Poloxamer 407 in-situ gel, 5.4% PS, read-out: PS in Cornea) of 13.6 µM. For the same compound, the concentration at 0.5 h [1, 5] was 89.8 µM, the concentration at 1 h [1, 5] was 63.9 µM and the concentration at 2 h [1, 5] was 43.5 µM. The concentration at 3 h [1, 6] was 0 µM, the concentration at 6 h [1, 6] was 0 µM and the concentration at 0.5 h [1, 7] was 2.8 µM. For the same compound, the concentration at 1 h [1, 7] was 6.4 µM, the concentration at 2 h [1, 7] was 1.3 µM and the concentration at 2 h ([1]; iris, 0.5% gellan gum in-situ gel, 2.4~3% PS, read-out: PS in Iris) was 0 µM. For the same compound, the concentration at 1 h ([1]; lacrimal gland, 3.5 % PS solution (eye drops), topical eye drops, 3.5% PS solution in propylene glycol, read-out: PS in Lacrimal gland) was 0.1 µM, the concentration at 0.5 h [1, 8] was 7.5 µM and the concentration at 1 h [1, 8] was 3.5 µM. For the same compound, the concentration at 2 h [1, 8] was 0.6 µM, the concentration at 2 h ([1]; lacrimal gland, 0.5% gellan gum in-situ gel, 2.4~3% PS, read-out: PS in Lacrimal Gland) was 0 µM and the concentration at 3 h [1, 9] was 0 µM. The concentration at 6 h [1, 9] was 0 µM, the concentration at 2 h ([1]; lens, 0.5% gellan gum in-situ gel, 2.4~3% PS, read-out: PS in Lens) was 0 µM and the concentration at 1 h [1, 10] was 0 µM. For the same compound, the concentration at 3 h [1, 10] was 0 µM, the concentration at 5 h ([1]; retina, 3 % PS, 5 h, sodium alginate/Tween 80 in-situ gel, 3% PS, read-out: PS in Retina) was 0 nM and the concentration at 8 h [1, 10] was 0 nM. The concentration at 1 h ([1]; retina, 3.5 % PS solution (eye drops), topical eye drops, 3.5% PS solution in propylene glycol, read-out: PS in Retina) was 0 µM, the concentration at 3 h [1, 11] was 0 µM and the concentration at 6 h [1, 11] was 0 µM. The concentration at 2 h ([1]; retina, 0.5% gellan gum in-situ gel, 2.4~3% PS, read-out: PS in Retina) was 0 µM, the concentration at 1 h ([1]; sclera, 3.5 % PS solution (eye drops), topical eye drops, 3.5% PS solution in propylene glycol, read-out: PS in Sclera) was 0 µM and the concentration at 3 h [1, 12] was 0 µM. The concentration at 6 h [1, 12] was 0 µM, the concentration at 0.5 h [1, 13] was 32.1 µM and the concentration at 1 h [1, 13] was 17.1 µM. The concentration at 2 h [1, 13] was 4.7 µM, the concentration at 2 h ([1]; sclera, 0.5% gellan gum in-situ gel, 2.4~3% PS, read-out: PS in Sclera) was 0 µM and the concentration at 1 h ([1]; vitreous body, 3.5 % PS solution (eye drops), topical eye drops, 3.5% PS solution in propylene glycol, read-out: PS in Vitreous body) was 0 µM. For the same compound, the concentration at 3 h ([1]; vitreous body, 3.5 % PS, topical eye drops, 3.5% PS/16% Vitamin E TPGS/mannitol/boric acid, read-out: PS in Vitreous body) was 0 µM, the concentration at 3 h [1, 14] was 0 µM and the concentration at 6 h [1, 14] was 0 µM. For the same compound, the concentration at 2 h ([1]; vitreous, 0.5% gellan gum in-situ gel, 2.4~3% PS, read-out: PS in Vitreous) was 0 µM, the “MMP-9 levels suppression compared to vehicle” value (MMP-9; lacrimal glands of rabbits with DED, PS eye drops) was 27% and the MMP-9 levels (MMP-9; lacrimal glands of rabbits with DED, PS eye drops, mean±SEM) was 1.66±0.20 ng/mg protein. For the same compound, the “MMP-9 levels in the ILG and the aqueous humor” value (MMP-9; rabbits with DED treated with PS for 1 week) was “back to normal”.
